Measurements: US10500207B2, “Compounds for the treatment of diseases associated with amyloid or amyloid-like proteins” (AC Immune SA, priority 2010, dated 2019)

biological target: Aβ1-42 peptide (Homo sapiens, UniProt P05067); assay: Thioflavin T spectrofluorescence assay (ThT-assay): inhibition of Aβ1-42 aggregation (% inhibition at 330 μM; IC50 from dilution series); settings: 24 h, read-out: Inhibition at 330 μM [%], ThT assay; 330 μM small molecule, 33 μM Aβ1-42 (10:1), 24 hrs at 37° C.; mean ± standard deviation of two independent experiments
Sequence (P05067 672-713 limits assumed): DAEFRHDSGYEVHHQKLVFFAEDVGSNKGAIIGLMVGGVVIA
Description: Aβ1-42 lyophilized powder (Bachem) was reconstituted in hexafluoroisopropanol (HFIP) to 1 mM. The peptide solution was sonicated for 15 min at room temperature, agitated overnight, and aliquots were made into non-siliconized microcentrifuge tubes. The HFIP was then evaporated under a stream of argon. The resulting peptide film was dried under vacuum for 10 min, tightly sealed and stored at −80° C. until used.
A positive control without a small molecule was prepared to measure maximum RFU. A negative control without Aβ1-42 was prepared for each small molecule. […] The solutions were then incubated for 24 hrs at 37° C., and the spectrofluorescence (relative fluorescence units; RFU) were read in six replicates in black 384-well assay plates (Perkin-Elmer) on a Perkin-Elmer FluoroCount spectrofluorometer. The inhibition of aggregation is expressed as mean % inhibition±1 standard deviation (SD) according to the following equation:
Racemic compounds and their enantiomers were tested for their ability to inhibit amyloid peptide aggregation using the ThT assay. To determine the IC50, the following dilutions of the compounds were used in the ThT assay described above:

inhibition at 330 µM [%]	Compound
85.1 ± 0.8	CNC1CCc2c(c3ccc(Nc4ccc5c(c4)OCCO5)nc3n2C)C1 (racemic) [Example 156]
58.5 ± 2.7	FC(F)(F)c1ccc(Nc2ccc3[nH]cc(C4CCNCC4)c3c2)cn1 [Example 56]
85.1 ± 3.2	Cn1cc(C2CCNCC2)c2cc(Nc3ccc(F)c(F)c3)ccc21 [Example 57]
99 ± 0.3	Cn1cc(C2CCNCC2)c2cc(Nc3ccc4c5c([nH]c4n3)CCC5)ccc21 [Example 59]
83.1 ± 3.4	Fc1ccc(Nc2ccc3c(C4CCNCC4)c[nH]c3n2)cc1F [Example 60]
83 ± 2.1	FC(F)(F)c1ccc(Nc2ccc3c(C4CCNCC4)c[nH]c3n2)cn1 [Example 61]
99.7 ± 0.3	c1cc(Nc2ccc3c(C4CCNCC4)c[nH]c3c2)cc(N2CCOCC2)c1 [Example 62]
91.5 ± 2.5	c1cc2c(C3CCNCC3)c[nH]c2cc1Nc1ccc2c(C3CCNCC3)c[nH]c2c1 [Example 63]
95.4 ± 0.3	CN1CCC(c2c[nH]c3ccc(Nc4ccc5c(C6CCNCC6)c[nH]c5c4)cc23)CC1 [Example 64]
95.9 ± 1.3	c1cc2c(cc1Nc1ccc3c(C4CCNCC4)c[nH]c3c1)CCC2 [Example 65]
85.1 ± 0.8	Cn1cc(C2CCNCC2)c2ccc(Nc3ccc4c(c3)OCO4)nc21 [Example 66]
87.8 ± 4.2	Cn1cc(C2CCNCC2)c2ccc(Nc3ccc(F)c(F)c3)nc21 [Example 67]
90.4 ± 5.3	CN1CCC(c2c[nH]c3cc(Nc4ccc5[nH]cc(C6CCNCC6)c5c4)ccc23)CC1 [Example 68]
86.5 ± 7.2	c1cc(N2CCOCC2)ccc1Nc1ccc2c(C3CCNCC3)c[nH]c2n1 [Example 69]
91 ± 1.2	Cn1cc(C2CCNCC2)c2ccc(Nc3cccc(N4CCOCC4)c3)cc21 [Example 70]
90.7 ± 3	Cn1cc(C2CCNCC2)c2ccc(Nc3ccc(N4CCOCC4)cc3)nc21 [Example 71]
97.9 ± 0.5	c1ccc2c(c1)CCN(c1ccc3c(C4CCNCC4)c[nH]c3c1)C2 [Example 72]
99.2 ± 0.3	c1cc(N2CCOCC2)ccc1Nc1ccc2c(C3CCNCC3)c[nH]c2c1 [Example 73]
97.1 ± 2	CN1CCC(c2cn(C)c3cc(Nc4cccc(N5CCOCC5)c4)ccc23)CC1 [Example 75]
96.9 ± 2.3	CN(C)C1CCc2[nH]c3ccc(Nc4ccc(N5CCOCC5)cc4)cc3c2C1 (stereo not drawn) [Example 76]
98 ± 0.6	CN1CCN(c2ccc(Nc3ccc4[nH]c5c(c4c3)CC(N(C)C)CC5)cc2)CC1 (stereo not drawn) [Example 77]

More lines, now with the values behind:

Compound	inhibition at 330 µM [%]
CNC1CCc2c(c3ccc(Nc4ccc(F)c(F)c4)nc3n2C)C1 (racemic) [Example 26, N^2-(3,4-difluorophenyl)-N^8,9-dimethyl-6,7,8,9-tetrahydro-5H-pyrido[2,3-b]indole-2,6-diamine hydrogenchloride]	93.4 ± 3.9
CNC1CCc2c(c3ccc(Nc4ccc(N5CCOCC5)cc4)nc3n2C)C1 (racemic) [Example 42]	96.2 ± 2.8
c1ccc(CCNc2ccc3cc[nH]c3n2)nc1 [Example 1]	69.5 ± 4.5
c1ccc(CNc2ccc3cc[nH]c3n2)nc1 [Example 2]	47.4 ± 8.9
Fc1ccc(Nc2ccc3cc[nH]c3n2)cc1F [Example 3]	56.6 ± 23
FC(F)(F)c1ccc(Nc2ccc3cc[nH]c3n2)cn1 [Example 4]	53.5 ± 0.4
Fc1cc(F)cc(Nc2ccc3cc[nH]c3n2)c1 [Example 6]	60.1 ± 3.5
c1cc2ccc(Nc3ccc4cc[nH]c4n3)nc2[nH]1 [Example 8]	74.7 ± 6.8
c1ccc(Nc2ccc3cc[nH]c3n2)nc1 [Example 9]	70.8 ± 9.2
Fc1ccc(Nc2ccc3cc[nH]c3n2)cc1 [Example 10]	62.7 ± 4
c1cc2cc(Nc3ccc4cc[nH]c4n3)cnc2[nH]1 [Example 11]	86.2 ± 8.6
c1cc2ccc(Nc3ccc4cc[nH]c4n3)cc2[nH]1 [Example 12]	75.3 ± 14.5
c1cc2ncc(Nc3ccc4cc[nH]c4n3)cc2[nH]1 [Example 13]	97.8 ± 1.8
N#Cc1c[nH]c2nc(Nc3ccc(F)cc3)ccc12 [Example 15]	58.6 ± 9.5
c1cc2cc(Nc3ccc4cc[nH]c4c3)ccc2[nH]1 [Example 16]	93.7 ± 2.1
c1cc2ccc(Nc3ccc4cc[nH]c4c3)cc2[nH]1 [Example 17]	96.3
c1cc2cc(Nc3ccc4cc[nH]c4n3)ccc2[nH]1 [Example 18]	97 ± 1.2
CN1CCC(c2c[nH]c3cc(Nc4cccc(N5CCOCC5)c4)ccc23)CC1 [Example 20]	92.8 ± 0.1
CN1CCC(c2c[nH]c3ccc(Nc4ccc(F)c(F)c4)cc23)CC1 [Example 21]	74 ± 2.7
CN1CCC(c2c[nH]c3cc(Nc4ccc(F)c(F)c4)ccc23)CC1 [Example 22]	84.5 ± 6.8
CN1CCC(c2c[nH]c3cc(N4CCc5ccccc5C4)ccc23)CC1 [Example 23]	97.8 ± 1.5
CNC1CCc2[nH]c3nc(Nc4ccc(F)c(F)c4)ccc3c2C1 (stereo not drawn) [Example 24]	77.4 ± 15.6
CNC1CCc2[nH]c3nc(Nc4ccc(C(F)(F)F)nc4)ccc3c2C1 (stereo not drawn) [Example 25]	63.4 ± 9
CNC1CCc2[nH]c3nc(Nc4cc(F)c(F)cc4F)ccc3c2C1 (stereo not drawn) [Example 27]	86.7 ± 0.8
CNC1CCc2c(c3ccc(Nc4cc(F)c(F)cc4F)nc3n2C)C1 (stereo not drawn) [Example 28]	91.4 ± 2.9

Compound	inhibition at 330 µM [%]
CNC1CCc2c(c3ccc(Nc4cc(F)cc(F)c4)nc3n2C)C1 (stereo not drawn) [Example 29]	85.4 ± 0.4
CNC1CCc2c(c3ccc(Nc4cc(F)c(F)c(F)c4)nc3n2C)C1 (stereo not drawn) [Example 30]	84.3 ± 3.1
CNC1CCc2[nH]c3nc(Nc4ccc5c(C6CCNCC6)c[nH]c5c4)ccc3c2C1 (stereo not drawn) [Example 31]	96.5 ± 0.6
COC(=O)c1c[nH]c2nc(Nc3ccc4c(C5CCNCC5)c[nH]c4c3)ccc12 [Example 32]	94.7 ± 1
N#Cc1c[nH]c2nc(Nc3cnc4c(C5CCNCC5)c[nH]c4c3)ccc12 [Example 34]	79.2 ± 16.2
c1nc2c(C3CCNCC3)c[nH]c2cc1Nc1ccc2c3c([nH]c2n1)CCCC3 [Example 35]	97.7 ± 0.3
c1cc2c(C3CCNCC3)c[nH]c2cc1Nc1ccc2[nH]cc(C3CCNCC3)c2c1 [Example 36]	98.2 ± 0.3
FC1(CNc2ccc3c(C4CCNCC4)c[nH]c3n2)CCNCC1 [Example 37]	47.4 ± 5.2
Cn1cc(C2CCNCC2)c2ccc(Nc3ccc(F)c(F)c3)cc21 [Example 38]	90.9 ± 2.7
c1cc2c(cc1Nc1ccc3c(C4CCNCC4)c[nH]c3n1)CCC2 [Example 40]	94.8 ± 1
c1cc2c(cc1Nc1ccc3c(C4CCNCC4)c[nH]c3c1)OCO2 [Example 41]	98 ± 0.5
c1cc2ccc(NC3CCNCC3)nc2[nH]1 [Example 43]	48.4 ± 20.3
c1cc2c(C3CCNCC3)c[nH]c2nc1Nc1ccc2c3c([nH]c2n1)CCCC3 [Example 44]	98.1 ± 0.3
c1nc2[nH]cc(C3CCNCC3)c2cc1Nc1ccc2c3c([nH]c2n1)CCCC3 [Example 45]	96.5 ± 3.7
c1cc2c(C3CCNCC3)c[nH]c2cc1Nc1ccc2c3c([nH]c2n1)CCC3 [Example 46]	99.4
c1cc2[nH]cc(C3CCNCC3)c2cc1Nc1ccc2c3c([nH]c2n1)CCC3 [Example 47]	99.1 ± 0.5
c1cc2c(C3CCNCC3)c[nH]c2cc1Nc1ccc2c(C3CCNCC3)c[nH]c2n1 [Example 48]	92 ± 0.8
FC(F)(F)c1ccc(Nc2ccc3c(C4CCNCC4)c[nH]c3c2)cn1 [Example 49]	81.9 ± 0.6
c1cc2c(C3CCNCC3)c[nH]c2nc1NCC1CCNCC1 [Example 50]	67.5 ± 0.1
c1nc2[nH]cc(C3CCNCC3)c2cc1Nc1ccc2c3c([nH]c2n1)CCC3 [Example 51]	95.5 ± 1
Fc1ccc(Nc2ccc3c(C4CCNCC4)c[nH]c3c2)cc1F [Example 52]	83.6 ± 2.8
Cn1cc(C2CCNCC2)c2cc(Nc3ccc4c(C5CCNCC5)cn(C)c4c3)ccc21 [Example 53]	96 ± 2.1
CN(c1ccc2c(c1)c(C1CCNCC1)cn2C)c1ccc2c(C3CCNCC3)cn(C)c2c1 [Example 54]	96 ± 2.7
Fc1ccc(Nc2ccc3[nH]cc(C4CCNCC4)c3c2)cc1F [Example 55]	75.8 ± 0.8

same assay, conditions: IC50 μM 1st assay, ThT assay, dilution series 330 μM to 0.08 μM; 1st assay

IC50 [µM]	Compound
39.7	CNC1CCc2c(c3ccc(Nc4ccc5c(c4)OCCO5)nc3n2C)C1 (racemic) [Example 156]
35.4	CNC1CCc2c(c3ccc(Nc4ccc(F)c(F)c4)nc3n2C)C1 (single isomer, unassigned) [Example 214a]
13.4	CNC1CCc2c(c3ccc(Nc4ccc(F)c(F)c4)nc3n2C)C1 (single isomer, unassigned) [Example 214b]
99.3	CNC1CCc2c(c3ccc(Nc4ccc(N5CCOCC5)cc4)nc3n2C)C1 (single isomer, unassigned) [Example 216a]
45	CNC1CCc2c(c3ccc(Nc4ccc(N5CCOCC5)cc4)nc3n2C)C1 (single isomer, unassigned) [Example 216b]
28	CNC1CCc2c(c3ccc(Nc4ccc5c(c4)OCCO5)nc3n2C)C1 (single isomer, unassigned) [Example 217a]
6.6	CNC1CCc2c(c3ccc(Nc4ccc5c(c4)OCCO5)nc3n2C)C1 (single isomer, unassigned) [Example 217b]

Further lines, the molecule ahead of its results:

Compound	IC50 [µM]
CNC1CCc2c(c3ccc(Nc4ccc(F)c(F)c4)nc3n2C)C1 (racemic) [Example 26, N^2-(3,4-difluorophenyl)-N^8,9-dimethyl-6,7,8,9-tetrahydro-5H-pyrido[2,3-b]indole-2,6-diamine hydrogenchloride]	12.2
CNC1CCc2c(c3ccc(Nc4ccc(N5CCOCC5)cc4)nc3n2C)C1 (racemic) [Example 42]	63

same assay, conditions: IC50 μM 2nd assay, ThT assay, dilution series 330 μM to 0.08 μM; 2nd assay

IC50 [µM]	Compound
26.7	CNC1CCc2c(c3ccc(Nc4ccc5c(c4)OCCO5)nc3n2C)C1 (racemic) [Example 156]
33.5	CNC1CCc2c(c3ccc(Nc4ccc(F)c(F)c4)nc3n2C)C1 (single isomer, unassigned) [Example 214a]
7.7	CNC1CCc2c(c3ccc(Nc4ccc(F)c(F)c4)nc3n2C)C1 (single isomer, unassigned) [Example 214b]
54.9	CNC1CCc2c(c3ccc(Nc4ccc(N5CCOCC5)cc4)nc3n2C)C1 (single isomer, unassigned) [Example 216a]
34.5	CNC1CCc2c(c3ccc(Nc4ccc(N5CCOCC5)cc4)nc3n2C)C1 (single isomer, unassigned) [Example 216b]
23.6	CNC1CCc2c(c3ccc(Nc4ccc5c(c4)OCCO5)nc3n2C)C1 (single isomer, unassigned) [Example 217a]
5.9	CNC1CCc2c(c3ccc(Nc4ccc5c(c4)OCCO5)nc3n2C)C1 (single isomer, unassigned) [Example 217b]

The remaining lines, values behind:

Compound	IC50 [µM]
CNC1CCc2c(c3ccc(Nc4ccc(F)c(F)c4)nc3n2C)C1 (racemic) [Example 26, N^2-(3,4-difluorophenyl)-N^8,9-dimethyl-6,7,8,9-tetrahydro-5H-pyrido[2,3-b]indole-2,6-diamine hydrogenchloride]	16.8
CNC1CCc2c(c3ccc(Nc4ccc(N5CCOCC5)cc4)nc3n2C)C1 (racemic) [Example 42]	112

same assay, conditions: ThT assay; 330 μM small molecule, 33 μM Aβ1-42 (10:1), 24 hrs at 37° C.; mean ± standard deviation of two independent experiments

Inhibition at 330 μM [%]	Compound
no inhibition	CN(C)C(=O)c1ccc(Nc2ccc3cc[nH]c3n2)cc1 [Example 5]
no inhibition	CN(C)C(=O)c1cccc(Nc2ccc3cc[nH]c3n2)c1 [Example 7]
